Source: paper PMC5282848, “Ancient coexistence of norepinephrine, tyramine, and octopamine signaling in bilaterians” (BMC Biology, 2017)
pEC50: −log10 of the molar value. Where two headings read alike, the source gives them in different places.

Columns and labels:
Assay in all cases: Ca2+ mobilization, GFP-apoaequorin luminescence in CHO-K1 with Gα-16
Type in all cases: cell-based
[1] = target: T1, Platynereis dumerilii α1-adrenergic receptor (Platynereis dumerilii, UniProt A0A1J0F5Z2); details: read-out: Norepinephrine
T1 construct: full-length in pcDNA3.1(+), expressed in CHO-K1 with Gα-16 and GFP-apoaequorin
T1 sequence (A0A1J0F5Z2 1-651): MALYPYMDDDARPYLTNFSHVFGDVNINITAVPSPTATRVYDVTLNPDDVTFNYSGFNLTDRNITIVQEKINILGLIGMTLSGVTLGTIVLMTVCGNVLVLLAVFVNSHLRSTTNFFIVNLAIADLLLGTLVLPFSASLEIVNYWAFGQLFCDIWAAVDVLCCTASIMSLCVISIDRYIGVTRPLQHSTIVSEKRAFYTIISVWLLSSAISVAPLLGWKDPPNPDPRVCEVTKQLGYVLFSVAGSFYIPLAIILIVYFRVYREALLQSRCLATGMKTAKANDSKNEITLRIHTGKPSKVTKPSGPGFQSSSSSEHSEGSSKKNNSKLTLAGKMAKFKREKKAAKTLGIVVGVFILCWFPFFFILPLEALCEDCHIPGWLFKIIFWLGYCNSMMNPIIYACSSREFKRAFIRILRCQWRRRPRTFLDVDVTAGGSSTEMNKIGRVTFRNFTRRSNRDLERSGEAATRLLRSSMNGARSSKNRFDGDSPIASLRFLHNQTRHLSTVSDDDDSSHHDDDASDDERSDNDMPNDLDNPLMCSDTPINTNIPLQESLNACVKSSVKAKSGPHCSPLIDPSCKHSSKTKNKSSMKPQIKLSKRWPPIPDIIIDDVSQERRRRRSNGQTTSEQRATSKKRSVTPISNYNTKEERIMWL
Description: Ca2+ mobilization, GFP-apoaequorin luminescence in CHO-K1 with Gα-16 on Platynereis dumerilii α1-adrenergic receptor

[2] = target: T2, Priapulus caudatus α1-adrenergic (Priapulus caudatus, UniProt A0ABM1DSS1); details: read-out: Norepinephrine
T2 construct: gene LOC106805782; full-length in pcDNA3.1(+), expressed in CHO-K1 with Gα-16 and GFP-apoaequorin
T2 sequence (A0ABM1DSS1 1-550): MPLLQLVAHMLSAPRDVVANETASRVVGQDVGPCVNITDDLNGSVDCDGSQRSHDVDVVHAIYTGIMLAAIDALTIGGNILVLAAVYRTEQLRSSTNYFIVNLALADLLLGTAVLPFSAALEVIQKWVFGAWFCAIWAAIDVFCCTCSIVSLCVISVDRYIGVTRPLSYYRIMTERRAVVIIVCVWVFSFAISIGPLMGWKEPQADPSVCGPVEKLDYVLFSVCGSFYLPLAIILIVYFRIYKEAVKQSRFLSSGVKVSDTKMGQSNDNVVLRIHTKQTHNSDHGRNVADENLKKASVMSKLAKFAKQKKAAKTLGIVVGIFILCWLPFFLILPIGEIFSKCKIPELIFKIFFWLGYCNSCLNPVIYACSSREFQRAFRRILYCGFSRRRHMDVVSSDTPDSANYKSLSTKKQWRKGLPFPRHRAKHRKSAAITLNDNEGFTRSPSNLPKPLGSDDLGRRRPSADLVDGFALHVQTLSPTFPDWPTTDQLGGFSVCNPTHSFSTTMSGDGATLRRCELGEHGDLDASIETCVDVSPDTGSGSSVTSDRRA
Description: Ca2+ mobilization, GFP-apoaequorin luminescence in CHO-K1 with Gα-16 on Priapulus caudatus α1-adrenergic

[3] = target: T3, P. dumerilii α2-adrenergic receptor (Platynereis dumerilii, UniProt A0A1J0F5X6)
T3 construct: full-length in pcDNA3.1(+), expressed in CHO-K1 with Gα-16 and GFP-apoaequorin
T3 sequence (A0A1J0F5X6 1-619): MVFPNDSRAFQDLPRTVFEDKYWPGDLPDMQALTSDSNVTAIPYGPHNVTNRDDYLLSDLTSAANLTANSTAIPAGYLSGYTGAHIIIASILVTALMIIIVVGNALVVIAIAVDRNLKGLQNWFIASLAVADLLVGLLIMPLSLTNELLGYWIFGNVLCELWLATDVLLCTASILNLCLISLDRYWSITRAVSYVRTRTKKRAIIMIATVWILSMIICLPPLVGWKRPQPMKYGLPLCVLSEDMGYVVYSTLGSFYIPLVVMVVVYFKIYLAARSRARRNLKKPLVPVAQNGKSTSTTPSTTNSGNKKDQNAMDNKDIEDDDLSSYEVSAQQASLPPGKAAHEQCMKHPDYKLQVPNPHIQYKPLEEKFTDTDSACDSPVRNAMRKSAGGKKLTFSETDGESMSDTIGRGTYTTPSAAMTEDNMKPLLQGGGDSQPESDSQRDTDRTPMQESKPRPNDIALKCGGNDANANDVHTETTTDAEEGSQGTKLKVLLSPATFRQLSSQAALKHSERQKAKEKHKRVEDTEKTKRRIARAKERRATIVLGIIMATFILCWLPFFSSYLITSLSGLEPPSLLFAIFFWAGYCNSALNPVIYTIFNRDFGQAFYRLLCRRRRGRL
Description: Ca2+ mobilization, GFP-apoaequorin luminescence in CHO-K1 with Gα-16 on P. dumerilii α2-adrenergic receptor

[4] = target: T4, S. kowalevskii α1-adrenergic (Saccoglossus kowalevskii, UniProt A0A0U2M149); details: read-out: Norepinephrine
T4 construct: full-length in pcDNA3.1(+), expressed in CHO-K1 with Gα-16 and GFP-apoaequorin
T4 sequence (A0A0U2M149 1-774): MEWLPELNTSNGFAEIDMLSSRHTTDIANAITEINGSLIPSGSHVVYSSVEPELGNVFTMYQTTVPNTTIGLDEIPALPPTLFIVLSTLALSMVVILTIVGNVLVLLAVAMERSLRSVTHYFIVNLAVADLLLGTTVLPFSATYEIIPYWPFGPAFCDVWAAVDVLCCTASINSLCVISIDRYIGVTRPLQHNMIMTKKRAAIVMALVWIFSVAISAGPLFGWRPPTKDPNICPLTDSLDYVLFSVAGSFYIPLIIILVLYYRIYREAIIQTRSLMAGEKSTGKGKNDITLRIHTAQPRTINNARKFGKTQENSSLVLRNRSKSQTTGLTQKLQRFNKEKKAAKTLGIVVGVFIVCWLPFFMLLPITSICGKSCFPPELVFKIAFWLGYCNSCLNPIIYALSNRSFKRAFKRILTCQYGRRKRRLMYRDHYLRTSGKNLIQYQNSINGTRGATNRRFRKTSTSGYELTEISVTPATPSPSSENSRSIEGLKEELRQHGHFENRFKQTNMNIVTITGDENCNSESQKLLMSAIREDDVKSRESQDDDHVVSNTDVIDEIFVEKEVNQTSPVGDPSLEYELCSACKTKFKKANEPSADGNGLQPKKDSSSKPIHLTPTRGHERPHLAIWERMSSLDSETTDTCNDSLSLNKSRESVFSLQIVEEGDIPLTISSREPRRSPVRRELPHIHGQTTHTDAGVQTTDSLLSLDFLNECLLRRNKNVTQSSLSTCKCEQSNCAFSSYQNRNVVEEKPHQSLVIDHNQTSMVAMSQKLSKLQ
Description: Ca2+ mobilization, GFP-apoaequorin luminescence in CHO-K1 with Gα-16 on S. kowalevskii α1-adrenergic

[5] = target: T5, P. caudatus α2-adrenergic (Priapulus caudatus, UniProt A0ABM1F9E8)
T5 construct: gene LOC106820961; full-length in pcDNA3.1(+), expressed in CHO-K1 with Gα-16 and GFP-apoaequorin
T5 sequence (A0ABM1F9E8 1-470): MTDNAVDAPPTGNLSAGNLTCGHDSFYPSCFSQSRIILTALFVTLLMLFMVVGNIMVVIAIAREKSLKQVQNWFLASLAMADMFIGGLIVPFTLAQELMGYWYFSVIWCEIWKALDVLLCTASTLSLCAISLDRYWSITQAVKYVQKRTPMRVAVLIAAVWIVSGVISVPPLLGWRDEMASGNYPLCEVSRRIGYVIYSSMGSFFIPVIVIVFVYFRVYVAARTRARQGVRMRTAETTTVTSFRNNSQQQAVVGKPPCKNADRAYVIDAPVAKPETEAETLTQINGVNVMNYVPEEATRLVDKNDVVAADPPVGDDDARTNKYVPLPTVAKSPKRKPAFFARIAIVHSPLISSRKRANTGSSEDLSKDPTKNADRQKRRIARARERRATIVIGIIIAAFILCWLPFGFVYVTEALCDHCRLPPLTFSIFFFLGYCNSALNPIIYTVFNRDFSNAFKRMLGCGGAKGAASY
Description: Ca2+ mobilization, GFP-apoaequorin luminescence in CHO-K1 with Gα-16 on P. caudatus α2-adrenergic

[6] = target: T6, S. kowalevskii α2-adrenergic (Saccoglossus kowalevskii, UniProt A0ABM0GQ86); details: read-out: Epinephrine
T6 construct: gene LOC100373264; full-length in pcDNA3.1(+), expressed in CHO-K1 with Gα-16 and GFP-apoaequorin
T6 sequence (A0ABM0GQ86 1-464): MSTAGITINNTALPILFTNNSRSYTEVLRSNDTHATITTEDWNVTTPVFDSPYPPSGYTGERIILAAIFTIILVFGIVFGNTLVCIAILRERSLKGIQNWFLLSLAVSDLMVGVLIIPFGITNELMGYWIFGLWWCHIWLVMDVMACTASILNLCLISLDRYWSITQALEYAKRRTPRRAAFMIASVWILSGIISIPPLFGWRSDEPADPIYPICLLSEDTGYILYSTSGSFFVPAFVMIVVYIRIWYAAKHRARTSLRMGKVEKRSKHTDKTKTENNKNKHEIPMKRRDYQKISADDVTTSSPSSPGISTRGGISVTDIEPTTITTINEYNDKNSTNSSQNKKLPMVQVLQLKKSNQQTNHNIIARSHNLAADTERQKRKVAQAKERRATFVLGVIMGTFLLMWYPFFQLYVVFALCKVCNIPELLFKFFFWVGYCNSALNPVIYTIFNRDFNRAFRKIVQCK
Description: Ca2+ mobilization, GFP-apoaequorin luminescence in CHO-K1 with Gα-16 on S. kowalevskii α2-adrenergic

NC[C@H](O)c1ccc(O)c(O)c1 [norepinephrine]
pEC50 [1]: 6.68
pEC50 [2]: 8.12
pEC50 ([3]; read-out: Norepinephrine): 8.09
pEC50 [4]: 7.77
pEC50 ([5]; read-out: Norepinephrine): 6.33

CNC[C@H](O)c1ccc(O)c(O)c1 [epinephrine]
pEC50 ([3]; read-out: Epinephrine): 7.96
pEC50 [6]: 8.64
pEC50 ([5]; read-out: Epinephrine): 6.35
